Here are results for 4 compounds from patent US8580516B2, “Methods and compositions for direct detection of DNA damage” (University of Chicago, priority 2008, dated 2013).

In one data set the test system is several cell lines. As to conditions: cited from earlier work.
The conditions of data set [1]: Privat and Sowers 1996; cited from earlier work.
In a further data set the test system is mammalian cells. As to conditions: via misincorporation and/or mispairing during replication; cited from earlier work.
A further data set concerns HL60 cells. As to the kind of experiment: In vitro differentiation of HL60 cells to neutrophils, CD11b flow cytometry. The note with it: 1 μM, five days, FITC anti-human CD11b flow cytometry. The data set is classed as cell-based. The protocol: HL60 cells were grown to confluence (1×10^6 cells/ml) in Roswell Park Memorial Institute media (“RPMI”) 1640 media supplemented with 10% fetal bovine serum, 1% penicillin/streptomycin and 2 mM L-glutamine at 37° C. in 5% CO2 and treated with ethanol carrier, 1 μM ATRA or 1 μM ATRA, 6 nM Vitamin D3 and 30 ng/ml G-CSF for five days.
For orientation: Flow cytometry measures light scatter and fluorescence of single cells or particles in a stream.

For `O=Cc1cn([C@H]2C[C@H](O)[C@@H](CO)O2)c(=O)[nH]c1=O` [5-FodU, 5-formyldeoxyuridine], the IC50 with several cell lines (5-FodU fed to tissue culture cells, several cell lines, read-out: IC50 (toxicity)) is about 1000 nM. Besides, the “toxicity in cells lacking thymidine kinase or thymidylate synthetase” value in the data set with several cell lines (cells lacking thymidine kinase or thymidylate synthetase) is on record as “lost”. For the same compound, the pKa in data set [1] is 6.8. On to `O=Cc1cn([C@H]2C[C@H](O)[C@@H](COP(=O)(O)OP(=O)(O)OP(=O)(O)O)O2)c(=O)[nH]c1=O` [5-FodUTP, 5-formyl deoxyuridine triphosphate], for which the “mutations induced in cells” value in the data set on mammalian cells was “induces both transition and transversion mutations”. For `CC1=C(/C=C/C(C)=C/C=C/C(C)=C/C(=O)O)C(C)(C)CCC1` [ATRA, all-trans retinoic acid], the “expression of CD11b” value with HL60 cells is reported as “increased expression of CD11b”. `O=c1ccn([C@@H]2O[C@H](CO)[C@@H](O)[C@H]2O)c(=O)[nH]1` [uridine]: the pKa in data set [1] is 9.4.

By IC50 is commonly meant the midpoint of a concentration-inhibition curve. One may read the pKa as the pH at which an ionisable group is half protonated.
